Results: paper PMC7265341, “Quantifying CDK inhibitor selectivity in live cells” (Nature Communications, 2020)
Read-outs that look alike come from different tables or passages of the source.

How the values were obtained:
CDK1/Cyclin E1 = CDK1/Cyclin E1 (Homo sapiens, UniProt P06493); experiment: NanoBRET live-cell target engagement, CDK1-NanoLuc/Cyclin E1 in HEK-293; assay type: binding; settings: CDK1/E1, read-out: Inhibition at 10µM (%)
CDK2/Cyclin E1 = CDK2/Cyclin E1 (Homo sapiens, UniProt P24941); experiment: NanoBRET live-cell target engagement, CDK2-NanoLuc/Cyclin E1 in HEK-293; assay type: binding; settings: CDK2/E1, read-out: Inhibition at 10µM (%)
CDK3/Cyclin E1 = CDK3/Cyclin E1 (Homo sapiens, UniProt Q00526); experiment: NanoBRET live-cell target engagement, CDK3-NanoLuc/Cyclin E1 in HEK-293; assay type: binding; settings: CDK3/E1, read-out: Inhibition at 10µM (%)
CDK4/Cyclin D1 = CDK4/Cyclin D1 (Homo sapiens, UniProt P11802); experiment: NanoBRET live-cell target engagement, NanoLuc-CDK4/Cyclin D1 in HEK-293; assay type: binding; settings: CDK4/D1; for IC50: read-out: IC50; for inhibition at 10 µM: read-out: Inhibition at 10µM (%)
CDK5/CDK5R1 = CDK5/CDK5R1 (Homo sapiens, UniProt Q00535); experiment: NanoBRET live-cell target engagement, CDK5-NanoLuc/CDK5R1 in HEK-293; assay type: binding; settings: CDK5/CDK5R1, read-out: Inhibition at 10µM (%)
CDK6/Cyclin D1 = CDK6/Cyclin D1 (Homo sapiens, UniProt Q00534); experiment: NanoBRET live-cell target engagement, NanoLuc-CDK6/Cyclin D1 in HEK-293; assay type: binding; settings: CDK6/D1; for IC50: read-out: IC50; for inhibition at 10 µM: read-out: Inhibition at 10µM (%)
CDK7 = CDK7 (Homo sapiens, UniProt P50613); experiment: NanoBRET live-cell target engagement, NanoLuc-CDK7 in HEK-293; assay type: binding; settings: CDK7; for IC50: read-out: IC50; for inhibition at 10 µM: read-out: Inhibition at 10µM (%)
CDK8/Cyclin C = CDK8/Cyclin C (Homo sapiens, UniProt P49336); experiment: NanoBRET live-cell target engagement, NanoLuc-CDK8/Cyclin C in HEK-293; assay type: binding; settings: CDK8/C, read-out: Inhibition at 10µM (%)
CDK9/Cyclin K = CDK9/Cyclin K (Homo sapiens, UniProt P50750); experiment: NanoBRET live-cell target engagement, NanoLuc-CDK9/Cyclin K in HEK-293; assay type: binding; settings: CDK9/K, read-out: Inhibition at 10µM (%)
CDK11B/Cyclin L2 = CDK11B/Cyclin L2 (Homo sapiens, UniProt P21127); experiment: NanoBRET live-cell target engagement, CDK11B-NanoLuc/Cyclin L2 in HEK-293; assay type: binding; settings: CDK11b/L2, read-out: Inhibition at 10µM (%)
CDK12/Cyclin K = CDK12/Cyclin K (Homo sapiens, UniProt Q9NYV4); experiment: NanoBRET live-cell target engagement, CDK12-NanoLuc/Cyclin K in HEK-293; assay type: binding; settings: CDK12/K, read-out: Inhibition at 10µM (%)
CDK13/Cyclin K = CDK13/Cyclin K (Homo sapiens, UniProt Q14004); experiment: NanoBRET live-cell target engagement, CDK13-NanoLuc/Cyclin K in HEK-293; assay type: binding; settings: CDK13/K, read-out: Inhibition at 10µM (%)
CDK14/Cyclin Y = CDK14/Cyclin Y (Homo sapiens, UniProt O94921); experiment: NanoBRET live-cell target engagement, CDK14-NanoLuc/Cyclin Y in HEK-293; assay type: binding; settings: CDK14/Y; for IC50: read-out: IC50; for inhibition at 10 µM: read-out: Inhibition at 10µM (%)
CDK15/Cyclin Y = CDK15/Cyclin Y (Homo sapiens, UniProt Q96Q40); experiment: NanoBRET live-cell target engagement, NanoLuc-CDK15/Cyclin Y in HEK-293; assay type: binding; settings: CDK15/Y, read-out: Inhibition at 10µM (%)
CDK16/Cyclin Y = CDK16/Cyclin Y (Homo sapiens, UniProt Q00536); experiment: NanoBRET live-cell target engagement, CDK16-NanoLuc/Cyclin Y in HEK-293; assay type: binding; settings: CDK16/Y; for IC50: read-out: IC50; for inhibition at 10 µM: read-out: Inhibition at 10µM (%)
CDK17/Cyclin Y = CDK17/Cyclin Y (Homo sapiens, UniProt Q00537); experiment: NanoBRET live-cell target engagement, CDK17-NanoLuc/Cyclin Y in HEK-293; assay type: binding; settings: CDK17/Y; for IC50: read-out: IC50; for inhibition at 10 µM: read-out: Inhibition at 10µM (%)
CDK18/Cyclin Y = CDK18/Cyclin Y (Homo sapiens, UniProt Q07002); experiment: NanoBRET live-cell target engagement, CDK18-NanoLuc/Cyclin Y in HEK-293; assay type: binding; settings: CDK18/Y; for IC50: read-out: IC50; for inhibition at 10 µM: read-out: Inhibition at 10µM (%)
CDK20/Cyclin H = CDK20/Cyclin H (Homo sapiens, UniProt Q8IZL9); experiment: NanoBRET live-cell target engagement, NanoLuc-CDK20/Cyclin H in HEK-293; assay type: binding; settings: CDK20/H, read-out: Inhibition at 10µM (%)
CDK19/Cyclin C = CDK19/Cyclin C (Homo sapiens, UniProt Q9BWU1); experiment: NanoBRET live-cell target engagement, NanoLuc-CDK19/Cyclin C in HEK-293; settings: read-out: Inhibition at 10µM (%), CDK19/C
CDK10/Cyclin L2 = CDK10/Cyclin L2 (Homo sapiens, UniProt Q15131); experiment: NanoBRET live-cell target engagement, CDK10-NanoLuc/Cyclin L2 in HEK-293; settings: read-out: Inhibition at 10µM (%), CDK10/L2
Sequence of CDK10/Cyclin L2 (Q15131 whole entry): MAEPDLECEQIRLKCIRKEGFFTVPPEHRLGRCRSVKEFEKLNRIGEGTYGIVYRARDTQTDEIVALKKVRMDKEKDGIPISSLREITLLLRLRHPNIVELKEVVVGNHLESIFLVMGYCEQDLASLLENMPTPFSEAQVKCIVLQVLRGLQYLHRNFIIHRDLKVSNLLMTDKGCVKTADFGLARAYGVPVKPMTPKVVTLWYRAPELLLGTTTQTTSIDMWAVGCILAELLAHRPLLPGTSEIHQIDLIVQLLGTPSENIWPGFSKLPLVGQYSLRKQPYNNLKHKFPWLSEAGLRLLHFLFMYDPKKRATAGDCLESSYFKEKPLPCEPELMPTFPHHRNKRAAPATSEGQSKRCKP

Sequence of CDK12/Cyclin K (Q9NYV4 1-1481 isoform Q9NYV4-2): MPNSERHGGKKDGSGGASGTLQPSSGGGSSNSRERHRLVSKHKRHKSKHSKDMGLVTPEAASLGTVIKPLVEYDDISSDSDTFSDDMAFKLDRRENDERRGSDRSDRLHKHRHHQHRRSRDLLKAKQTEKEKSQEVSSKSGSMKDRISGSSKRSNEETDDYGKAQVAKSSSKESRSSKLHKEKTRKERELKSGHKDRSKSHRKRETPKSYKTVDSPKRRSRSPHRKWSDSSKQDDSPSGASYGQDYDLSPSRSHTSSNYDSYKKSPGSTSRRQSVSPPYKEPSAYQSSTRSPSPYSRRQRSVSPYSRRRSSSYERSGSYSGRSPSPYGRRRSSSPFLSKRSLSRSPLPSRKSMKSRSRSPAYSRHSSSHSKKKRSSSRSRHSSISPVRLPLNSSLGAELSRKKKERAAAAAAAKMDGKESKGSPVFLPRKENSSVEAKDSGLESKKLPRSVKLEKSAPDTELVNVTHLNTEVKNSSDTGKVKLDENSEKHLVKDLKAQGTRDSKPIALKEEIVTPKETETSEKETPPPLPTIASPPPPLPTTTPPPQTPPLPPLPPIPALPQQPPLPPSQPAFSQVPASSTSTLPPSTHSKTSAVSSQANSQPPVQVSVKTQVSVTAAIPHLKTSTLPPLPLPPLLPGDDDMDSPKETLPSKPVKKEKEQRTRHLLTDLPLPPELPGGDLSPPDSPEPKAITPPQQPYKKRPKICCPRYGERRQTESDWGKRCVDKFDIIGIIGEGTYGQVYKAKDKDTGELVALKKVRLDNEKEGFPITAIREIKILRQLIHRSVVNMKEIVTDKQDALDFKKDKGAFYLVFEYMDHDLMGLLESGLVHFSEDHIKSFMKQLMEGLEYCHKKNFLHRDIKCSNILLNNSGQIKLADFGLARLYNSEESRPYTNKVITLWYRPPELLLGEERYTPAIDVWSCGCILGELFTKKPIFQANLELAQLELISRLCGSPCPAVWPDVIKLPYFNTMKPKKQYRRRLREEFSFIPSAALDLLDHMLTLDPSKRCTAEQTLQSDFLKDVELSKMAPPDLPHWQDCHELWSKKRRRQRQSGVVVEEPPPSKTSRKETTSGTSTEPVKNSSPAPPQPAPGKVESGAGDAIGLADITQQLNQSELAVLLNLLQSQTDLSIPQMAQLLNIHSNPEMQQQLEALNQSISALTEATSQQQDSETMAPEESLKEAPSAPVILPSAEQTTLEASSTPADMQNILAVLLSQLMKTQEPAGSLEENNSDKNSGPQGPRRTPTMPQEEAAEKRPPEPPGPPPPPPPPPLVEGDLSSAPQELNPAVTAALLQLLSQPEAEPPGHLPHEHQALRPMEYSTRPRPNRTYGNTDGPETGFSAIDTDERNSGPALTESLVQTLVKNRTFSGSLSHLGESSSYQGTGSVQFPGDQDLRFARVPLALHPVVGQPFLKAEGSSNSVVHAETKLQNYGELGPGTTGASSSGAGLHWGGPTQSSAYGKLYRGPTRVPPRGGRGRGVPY
Sequence of CDK12/Cyclin K (O75909 whole entry partner): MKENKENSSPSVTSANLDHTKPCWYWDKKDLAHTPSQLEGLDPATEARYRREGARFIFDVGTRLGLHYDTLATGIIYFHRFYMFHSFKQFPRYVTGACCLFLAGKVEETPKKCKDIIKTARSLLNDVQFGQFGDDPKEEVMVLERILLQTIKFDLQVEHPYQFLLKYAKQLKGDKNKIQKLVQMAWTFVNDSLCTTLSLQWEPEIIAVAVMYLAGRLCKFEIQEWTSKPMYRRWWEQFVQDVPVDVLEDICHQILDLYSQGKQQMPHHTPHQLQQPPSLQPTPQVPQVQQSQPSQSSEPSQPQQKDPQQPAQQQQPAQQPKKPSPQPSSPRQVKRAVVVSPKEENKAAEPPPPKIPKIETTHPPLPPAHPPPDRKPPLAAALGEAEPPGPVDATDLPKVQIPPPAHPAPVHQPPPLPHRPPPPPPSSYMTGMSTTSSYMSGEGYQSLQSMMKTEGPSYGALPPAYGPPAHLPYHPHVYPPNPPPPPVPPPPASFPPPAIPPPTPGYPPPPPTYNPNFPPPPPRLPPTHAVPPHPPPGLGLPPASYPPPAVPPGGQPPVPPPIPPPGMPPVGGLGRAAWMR
Sequence of CDK3/Cyclin E1 (Q00526 whole entry): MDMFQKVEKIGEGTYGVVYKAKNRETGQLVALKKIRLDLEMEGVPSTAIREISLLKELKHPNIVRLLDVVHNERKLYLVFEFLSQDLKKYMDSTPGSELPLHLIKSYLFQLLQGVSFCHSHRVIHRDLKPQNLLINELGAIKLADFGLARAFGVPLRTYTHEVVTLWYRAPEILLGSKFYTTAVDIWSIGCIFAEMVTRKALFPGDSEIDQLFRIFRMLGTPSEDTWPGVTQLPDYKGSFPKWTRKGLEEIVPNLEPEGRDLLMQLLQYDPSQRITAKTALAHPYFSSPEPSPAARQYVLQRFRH
Sequence of CDK3/Cyclin E1 (P24864 whole entry partner): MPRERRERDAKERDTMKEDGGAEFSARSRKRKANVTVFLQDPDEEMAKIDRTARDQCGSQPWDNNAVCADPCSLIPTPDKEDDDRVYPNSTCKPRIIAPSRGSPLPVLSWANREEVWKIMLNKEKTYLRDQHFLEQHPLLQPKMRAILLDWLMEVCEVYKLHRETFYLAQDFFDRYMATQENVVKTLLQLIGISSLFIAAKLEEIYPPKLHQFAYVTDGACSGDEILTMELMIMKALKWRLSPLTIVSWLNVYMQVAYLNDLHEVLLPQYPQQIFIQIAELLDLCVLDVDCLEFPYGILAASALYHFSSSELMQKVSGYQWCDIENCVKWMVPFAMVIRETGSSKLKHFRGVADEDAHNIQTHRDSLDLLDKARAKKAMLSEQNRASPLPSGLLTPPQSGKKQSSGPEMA
Sequence of CDK14/Cyclin Y (O94921 whole entry): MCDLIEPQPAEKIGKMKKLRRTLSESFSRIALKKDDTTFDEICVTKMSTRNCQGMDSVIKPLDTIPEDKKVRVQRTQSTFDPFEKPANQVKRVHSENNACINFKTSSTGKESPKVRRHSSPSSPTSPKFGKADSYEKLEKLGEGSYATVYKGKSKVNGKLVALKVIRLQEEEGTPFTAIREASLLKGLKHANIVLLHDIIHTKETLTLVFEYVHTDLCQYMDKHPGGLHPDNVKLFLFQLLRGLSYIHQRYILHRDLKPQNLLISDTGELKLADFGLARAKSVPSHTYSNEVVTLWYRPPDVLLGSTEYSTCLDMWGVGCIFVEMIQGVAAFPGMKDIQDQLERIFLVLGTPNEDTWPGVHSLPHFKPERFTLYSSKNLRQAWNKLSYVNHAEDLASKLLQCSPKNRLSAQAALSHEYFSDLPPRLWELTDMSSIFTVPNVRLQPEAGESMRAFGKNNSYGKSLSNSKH
Sequence of CDK14/Cyclin Y (Q8ND76 whole entry partner): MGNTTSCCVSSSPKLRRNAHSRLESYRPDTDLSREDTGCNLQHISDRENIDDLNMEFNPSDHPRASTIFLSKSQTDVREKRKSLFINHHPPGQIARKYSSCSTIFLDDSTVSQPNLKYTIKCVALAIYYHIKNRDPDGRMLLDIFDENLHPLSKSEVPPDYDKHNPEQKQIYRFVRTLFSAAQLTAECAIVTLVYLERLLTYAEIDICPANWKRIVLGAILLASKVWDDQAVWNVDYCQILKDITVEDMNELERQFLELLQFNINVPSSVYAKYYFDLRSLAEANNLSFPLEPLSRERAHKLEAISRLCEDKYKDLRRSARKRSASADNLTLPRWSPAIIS
Sequence of CDK18/Cyclin Y (Q07002 whole entry): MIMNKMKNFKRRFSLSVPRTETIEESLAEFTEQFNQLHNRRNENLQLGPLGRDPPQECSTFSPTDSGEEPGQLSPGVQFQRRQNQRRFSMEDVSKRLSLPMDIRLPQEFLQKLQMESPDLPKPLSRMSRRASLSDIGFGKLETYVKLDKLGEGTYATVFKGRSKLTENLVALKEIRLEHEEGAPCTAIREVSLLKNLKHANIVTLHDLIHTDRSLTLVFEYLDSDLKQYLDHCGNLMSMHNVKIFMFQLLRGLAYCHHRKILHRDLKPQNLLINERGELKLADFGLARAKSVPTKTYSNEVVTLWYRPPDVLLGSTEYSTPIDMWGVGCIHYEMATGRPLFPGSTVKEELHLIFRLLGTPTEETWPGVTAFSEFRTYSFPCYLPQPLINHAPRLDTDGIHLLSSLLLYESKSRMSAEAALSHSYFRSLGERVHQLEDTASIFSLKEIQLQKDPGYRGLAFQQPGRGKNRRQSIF
Sequence of CDK18/Cyclin Y (Q8ND76 whole entry partner): as the sequence (Q8ND76 whole entry partner) above
Sequence of CDK7 (P50613 whole entry): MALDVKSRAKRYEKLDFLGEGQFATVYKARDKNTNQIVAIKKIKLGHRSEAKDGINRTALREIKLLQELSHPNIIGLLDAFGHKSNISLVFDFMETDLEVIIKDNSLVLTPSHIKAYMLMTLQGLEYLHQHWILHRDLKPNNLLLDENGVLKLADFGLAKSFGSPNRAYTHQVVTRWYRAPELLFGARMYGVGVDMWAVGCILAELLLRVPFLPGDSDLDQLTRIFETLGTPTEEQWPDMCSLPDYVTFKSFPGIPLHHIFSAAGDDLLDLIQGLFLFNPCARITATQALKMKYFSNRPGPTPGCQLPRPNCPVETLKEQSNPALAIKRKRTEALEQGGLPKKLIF

## CN1CCN(c2ccc(Nc3ncc4cc(C#N)c(=O)n(C5CCCC5)c4n3)cc2)CC1 [ON123300]
CDK1/Cyclin E1; average
  inhibition at 10 µM: 18.6%
CDK1/Cyclin E1; experiment 1
  inhibition at 10 µM: 20.1%
CDK1/Cyclin E1; experiment 2
  inhibition at 10 µM: 17.1%
CDK2/Cyclin E1; average
  inhibition at 10 µM: 12.6%
CDK2/Cyclin E1; experiment 1
  inhibition at 10 µM: 14.4%
CDK2/Cyclin E1; experiment 2
  inhibition at 10 µM: 10.7%
CDK3/Cyclin E1; average
  inhibition at 10 µM: 24.7%
CDK3/Cyclin E1; experiment 1
  inhibition at 10 µM: 10.5%
CDK3/Cyclin E1; experiment 2
  inhibition at 10 µM: 38.9%
CDK4/Cyclin D1; average (± SEM where n=3)
  IC50: 0.009 ± 0.003 µM
CDK4/Cyclin D1; average
  inhibition at 10 µM: 95.1%
CDK4/Cyclin D1; experiment 1
  IC50: 0.0069 µM
  inhibition at 10 µM: 95.8%
CDK4/Cyclin D1; experiment 2
  IC50: 0.005 µM
  inhibition at 10 µM: 94.3%
CDK4/Cyclin D1; experiment 3
  IC50: 0.015 µM
CDK5/CDK5R1; average
  inhibition at 10 µM: 4.3%
CDK5/CDK5R1; experiment 1
  inhibition at 10 µM: 8%
CDK5/CDK5R1; experiment 2
  inhibition at 10 µM: 0.554%
CDK6/Cyclin D1; average (± SEM where n=3)
  IC50: 0.004 ± 0.001 µM
CDK6/Cyclin D1; average
  inhibition at 10 µM: 97.7%
CDK6/Cyclin D1; experiment 1
  IC50: 0.0048 µM
  inhibition at 10 µM: 96.9%
CDK6/Cyclin D1; experiment 2
  IC50: 0.0034 µM
  inhibition at 10 µM: 98.5%
CDK6/Cyclin D1; experiment 3
  IC50: 0.003 µM
CDK7; average (± SEM where n=3)
  IC50: 0.143 ± 0.004 µM
CDK7; average
  inhibition at 10 µM: 28.4%
CDK7; experiment 1
  IC50: 0.14 µM
  inhibition at 10 µM: 28.2%
CDK7; experiment 2
  IC50: 0.15 µM
  inhibition at 10 µM: 28.5%
CDK7; experiment 3
  IC50: 0.139 µM
CDK8/Cyclin C; average
  inhibition at 10 µM: 8.5%
CDK8/Cyclin C; experiment 1
  inhibition at 10 µM: 6.2%
CDK8/Cyclin C; experiment 2
  inhibition at 10 µM: 10.8%
CDK9/Cyclin K; average
  inhibition at 10 µM: 34.2%
CDK9/Cyclin K; experiment 1
  inhibition at 10 µM: 32%
CDK9/Cyclin K; experiment 2
  inhibition at 10 µM: 36.4%
CDK11B/Cyclin L2; average
  inhibition at 10 µM: 36.8%
CDK11B/Cyclin L2; experiment 1
  inhibition at 10 µM: 11.7%
CDK11B/Cyclin L2; experiment 2
  inhibition at 10 µM: 61.9%
CDK12/Cyclin K; average
  inhibition at 10 µM: -3.9%
CDK12/Cyclin K; experiment 1
  inhibition at 10 µM: -2.7%
CDK12/Cyclin K; experiment 2
  inhibition at 10 µM: -5%
CDK13/Cyclin K; average
  inhibition at 10 µM: -15.1%
CDK13/Cyclin K; experiment 1
  inhibition at 10 µM: -1%
CDK13/Cyclin K; experiment 2
  inhibition at 10 µM: -29.2%
CDK14/Cyclin Y; average (± SEM where n=3)
  IC50: 0.12 ± 0.06 µM
CDK14/Cyclin Y; average
  inhibition at 10 µM: 45.4%
CDK14/Cyclin Y; experiment 1
  IC50: 0.034 µM
  inhibition at 10 µM: 56.3%
CDK14/Cyclin Y; experiment 2
  IC50: 0.22 µM
  inhibition at 10 µM: 34.4%
CDK14/Cyclin Y; experiment 3
  IC50: 0.099 µM
CDK15/Cyclin Y; average
  inhibition at 10 µM: 29.2%
CDK15/Cyclin Y; experiment 1
  inhibition at 10 µM: 36%
CDK15/Cyclin Y; experiment 2
  inhibition at 10 µM: 22.5%
CDK16/Cyclin Y; average (± SEM where n=3)
  IC50: 0.039 ± 0.008 µM
CDK16/Cyclin Y; experiment 1
  IC50: 0.023 µM
  inhibition at 10 µM: 70.3%
CDK16/Cyclin Y; experiment 2
  IC50: 0.047 µM
  inhibition at 10 µM: 78.8%
CDK16/Cyclin Y; experiment 3
  IC50: 0.048 µM
CDK17/Cyclin Y; average (± SEM where n=3)
  IC50: 0.04 ± 0.004 µM
CDK17/Cyclin Y; average
  inhibition at 10 µM: 75.5%
CDK17/Cyclin Y; experiment 1
  IC50: 0.032 µM
  inhibition at 10 µM: 72.1%
CDK17/Cyclin Y; experiment 2
  IC50: 0.043 µM
  inhibition at 10 µM: 78.9%
CDK17/Cyclin Y; experiment 3
  IC50: 0.044 µM
CDK18/Cyclin Y; average (± SEM where n=3)
  IC50: 0.24 ± 0.05 µM
CDK18/Cyclin Y; average
  inhibition at 10 µM: 38.8%
CDK18/Cyclin Y; experiment 1
  IC50: 0.283 µM
  inhibition at 10 µM: 27.5%
CDK18/Cyclin Y; experiment 2
  IC50: 0.3 µM
  inhibition at 10 µM: 50%
CDK18/Cyclin Y; experiment 3
  IC50: 0.15 µM
CDK20/Cyclin H; experiment 1
  inhibition at 10 µM: 23.1%
CDK20/Cyclin H; experiment 2
  inhibition at 10 µM: 26.8%
CDK19/Cyclin C; average
  inhibition at 10 µM: -0.3%
CDK19/Cyclin C; experiment 1
  inhibition at 10 µM: 6.6%
CDK19/Cyclin C; experiment 2
  inhibition at 10 µM: -7.2%
CDK10/Cyclin L2; average
  inhibition at 10 µM: 4.6%
CDK10/Cyclin L2; experiment 1
  inhibition at 10 µM: 8.8%
CDK10/Cyclin L2; experiment 2
  inhibition at 10 µM: 0.3%
